# Columns and labels:
# [1] = tested on: platelet aggregation (platelet rich plasma); experiment: Platelet aggregation inhibitory activity, ADP-induced (Pharmacological test 1); type: cell-based, human beings; conditions: Homo sapiens, ADP (14 to 16 μM), read-out: Platelet aggregation inhibitory rate (%); for inhibition at 100 µM: Conc. 10^-4 mol; for inhibition at 10 µM: Conc. 10^-5 mol; for inhibition at 1 µM: Conc. 10^-6 mol
# Protocol: (§1) The platelet aggregation inhibitory activity of test compounds was measured in accordance with the method of Born et al. [J. Physiol., London, 162, 67, (1962)] using a platelet aggregator [Platelet Aggregation Tracer manufactured by Niko Biosceince K.K.].
# (§2) To 9 volumes of blood taken from human beings was added 1 volume of 3.8% citric acid and this sample was centrifuged at 1100 rpm for 10 minutes to give a platelet rich plasma (PRP). The remaining sample was further centrifuged at 3000 rpm for 15 minutes to give a platelet poor plasma (PPP).
# (§3) The platelets in the PRP obtained above was counted using Coulter Counter, Coulter electronics inc. and diluted to 300000 platelets/μl with the PPP to prepare a PRP solution.
# (§4) A cell for measurement of aggregation was charged with a solution containing a fixed concentration of test compounds (1 to 2 μl) and the PRP solution prepared above (200 μl) and warmed at 37° C. for 1 minute. Then, to the cell was added a suspension of adenosine diphosphate (ADP, manufactured by Sigma) or collagen (Collagen Reagent Horm, manufactured by Hormon-Chemie) to induce platelet aggregation and the transparency of the cell was measured and a platelet aggregation curve was prepared. The final concentration of the above ADP and the collagen was adjusted to 14 to 16 μM and 1 to 4 μg/ml, respectively.
# (§5) Maximum Aggregation Rate (MAR) of platelets was calculated from the platelet aggregation curve by the following formula: […]
# (§6) wherein (a) represents the transparency of PRP measured in the similar test, (b) represents the transparency of the PRP solution containing the test compound and the aggregation inducer at the time of maximum change in the above test, and (c) represents the transparency of the PPP solution measured in the similar test.
# (§7) MAR for control with no addition of the test compound was also calculated, and based on this value, the platelet aggregation inhibitory rate (%) of each test compound at various concentrations in the above test was calculated from the following formula:
# (§8) Inhibitory rate=[1-(MAR of PRP with addition of test compound)/(MAR of PRP
# (§9) with no addition of test compound)]×100
# [2] = tested on: platelet aggregation (platelet rich plasma); experiment: Platelet aggregation inhibitory activity, collagen-induced (Pharmacological test 1); type: cell-based, human beings; conditions: Homo sapiens, Collagen (1 to 4 μg/ml), read-out: Platelet aggregation inhibitory rate (%); for inhibition at 100 µM: Conc. 10^-4 mol; for inhibition at 10 µM: Conc. 10^-5 mol; for inhibition at 1 µM: Conc. 10^-6 mol
# Protocol: as §1, §2, §3, §4, §5, §6, §7, §8, §9
# C-AMP phosphodiesterase = C-AMP phosphodiesterase inhibitory activity (Pharmacological test 2); type: biochemical, dog; conditions: C-AMP 0.4 μmol
# [3] = tested on: aggregates of platelet (platelet rich plasma); experiment: Platelet aggregate dissociation, ADP-induced aggregates (Pharmacological Test 4); type: cell-based, human beings; conditions: Homo sapiens, 5 min, after 5 minutes, read-out: Platelet aggregate dissociation rate (%)
# Protocol: as §2, §3
# (§10) In the same manner as in the above test 1, the obtained PRP solution (200 μl ) was put in cell for measurement of aggregation and the cell was warmed at 37° C. for 1 minute. Thereto was added ADP or collagen suspension (final concentration of 14 to 16 μM and 1 to 4 μg/ml, respectively) without addition of the test compound to form aggregates of platelet. MAR was determined after stable transparency was obtained. This MAR was referred to as "MAR-1". Then, the test compound was added and MAR was determined from the transparency after 5 minutes. This MAR was referred to as "MAR-2".
# (§11) Platelet aggregate dissociation rate (%) was calculated in accordance with the following formula: […]
# (§12) Platelet aggregate dissociation rate
# (§13) (%)=[(MAR-1)-(MAR-2)]/(MAR-1)×100
# [4] = tested on: aggregates of platelet (platelet rich plasma); experiment: Platelet aggregate dissociation, collagen-induced aggregates (Pharmacological Test 4); type: cell-based, human beings; conditions: Homo sapiens, 5 min, after 5 minutes, read-out: Platelet aggregate dissociation rate (%)
# Protocol: as §2, §3, §10, §11, §12, §13
# Cerebellum blood flow = experiment: Topical blood flow in the cerebellum, colored microspheres, anesthetized dog (Pharmacological Test 3); type: in vivo, hybrid dog
# Brain blood flow = experiment: Topical blood flow in the brain, colored microspheres, anesthetized dog (Pharmacological Test 3); type: in vivo, hybrid dog
# [5] = 3 μg/kg/min i.v. over 30 minutes
# [6] = 10 μg/kg/min i.v. over 30 minutes
structure (smiles),measurement,setting,value
CN(Cc1ccccc1)CC(O)COc1ccc2[nH]c(=O)ccc2c1 (stereo not shown) [compound 1],inhibition at 100 µM,[1],79%
same,inhibition at 10 µM,[1],31.7%
same,inhibition at 1 µM,[1],14.9%
same,inhibition at 100 µM,[2],96.3%
same,inhibition at 10 µM,[2],70.7%
same,inhibition at 1 µM,[2],3.8%
COc1cccc(CNCC(O)COc2ccc3[nH]c(=O)ccc3c2)c1 (stereo not shown) [compound 2],inhibition at 100 µM,[1],89.1%
same,inhibition at 10 µM,[1],43.9%
same,inhibition at 1 µM,[1],14.9%
same,Phosphodiesterase inhibitory rate (%),C-AMP phosphodiesterase; Conc. 10^-4 mol,2.32%
same,Phosphodiesterase inhibitory rate (%),C-AMP phosphodiesterase; Conc. 10^-5 mol,48.63%
same,inhibition at 100 µM,[2],97.2%
same,inhibition at 10 µM,[2],95.7%
same,inhibition at 1 µM,[2],23.1%
O=c1ccc2cc(OCC(O)CNCc3ccc(Cl)cc3)ccc2[nH]1 (stereo not shown) [compound 3],inhibition at 100 µM,[1],78.2%
same,inhibition at 10 µM,[1],44.5%
same,inhibition at 1 µM,[1],13.2%
same,Phosphodiesterase inhibitory rate (%),C-AMP phosphodiesterase; Conc. 10^-4 mol,32.46%
same,Phosphodiesterase inhibitory rate (%),C-AMP phosphodiesterase; Conc. 10^-5 mol,86.11%
same,inhibition at 100 µM,[2],97.8%
same,inhibition at 10 µM,[2],96.7%
same,inhibition at 1 µM,[2],17%
CN(Cc1ccccn1)CC(O)COc1ccc2[nH]c(=O)ccc2c1 (stereo not shown) [compound 4],inhibition at 100 µM,[1],77.5%
same,inhibition at 10 µM,[1],30.5%
same,inhibition at 1 µM,[1],13.5%
same,inhibition at 100 µM,[2],97.2%
same,inhibition at 10 µM,[2],64.3%
CN(CCN(C)c1ccccc1)CC(O)COc1ccc2[nH]c(=O)ccc2c1 (stereo not shown) [compound 5],inhibition at 100 µM,[1],84.8%
same,inhibition at 10 µM,[1],38.4%
same,inhibition at 1 µM,[1],21.6%
same,inhibition at 100 µM,[2],96.5%
same,inhibition at 10 µM,[2],72.9%
same,inhibition at 1 µM,[2],44.4%
COc1ccc(CNCC(O)COc2ccc3[nH]c(=O)ccc3c2)cc1 (stereo not shown) [compound 6],inhibition at 100 µM,[1],77.5%
same,inhibition at 10 µM,[1],43.8%
same,inhibition at 1 µM,[1],7.4%
same,inhibition at 100 µM,[2],97%
same,inhibition at 10 µM,[2],96.7%
same,inhibition at 1 µM,[2],17%
COc1ccc(CNCC(O)COc2ccc3[nH]c(=O)ccc3c2)cc1OC (stereo not shown) [compound 7],inhibition at 10 µM,[3]; Conc. 10 μmol,41.5%
same,inhibition at 30 µM,[3]; Conc. 30 μmol,43.3%
same,inhibition at 100 µM,[3]; Conc. 100 μmol,71.7%
same,inhibition at 100 µM,[1],96.4%
same,inhibition at 10 µM,[1],39%
same,inhibition at 1 µM,[1],9.5%
same,Phosphodiesterase inhibitory rate (%),C-AMP phosphodiesterase; Conc. 10^-4 mol,15.27%
same,Phosphodiesterase inhibitory rate (%),C-AMP phosphodiesterase; Conc. 10^-5 mol,72.39%
same,inhibition at 10 µM,[4]; Conc. 10 μmol,13.3%
same,inhibition at 30 µM,[4]; Conc. 30 μmol,26.7%
same,inhibition at 100 µM,[4]; Conc. 100 μmol,28%
same,Increasing rate of blood flow (%),Cerebellum blood flow; [5],15.2 ± 11.5%
same,Increasing rate of blood flow (%),Cerebellum blood flow; [6],29.7 ± 11.5%
same,inhibition at 100 µM,[2],96.9%
same,inhibition at 10 µM,[2],91.6%
same,inhibition at 1 µM,[2],4.1%
same,Increasing rate of blood flow (%),Brain blood flow; [5],25.9 ± 7.0%
same,Increasing rate of blood flow (%),Brain blood flow; [6],57.8 ± 10.9%
O=c1ccc2cc(OCC(O)CNCc3cccc(Cl)c3)ccc2[nH]1 (stereo not shown) [compound 8],inhibition at 100 µM,[1],62%
same,inhibition at 10 µM,[1],27.4%
same,inhibition at 1 µM,[1],5.1%
same,inhibition at 100 µM,[2],93.1%
same,inhibition at 10 µM,[2],27.7%
same,inhibition at 1 µM,[2],12.3%
CCOc1ccc(CNCC(O)COc2ccc3[nH]c(=O)ccc3c2)cc1OCC (stereo not shown) [compound 9],Phosphodiesterase inhibitory rate (%),C-AMP phosphodiesterase; Conc. 10^-4 mol,50.63%
same,Phosphodiesterase inhibitory rate (%),C-AMP phosphodiesterase; Conc. 10^-5 mol,89.07%
O=c1ccc2cc(OCC(O)CN(CCO)Cc3ccc(F)cc3)ccc2[nH]1 (stereo not shown) [compound 10],Phosphodiesterase inhibitory rate (%),C-AMP phosphodiesterase; Conc. 10^-4 mol,23.90%
same,Phosphodiesterase inhibitory rate (%),C-AMP phosphodiesterase; Conc. 10^-5 mol,74.63%
